Like-named read-outs stand apart in the source and are kept apart here.
Tests used:
CviR [1] = target: T1, CviR (Chromobacterium violaceum, UniProt D3W065); details: for maximal gfp expression level compared with C6-HSL / EC50: E. coli vioA-gfp; for EC50: read-out: EC50, CviR activation of gfp expression; for induction of gfp expression through CviR: even at 100 μM
CviR [2] = target: T1, CviR; assay type: cell-based; details: read-out: IC50, inhibition of CviR-dependent vioA-gfp expression; constant 500 nM C6-HSL
[3] = test system: CviR binding to the vioA promoter; design: species or system Chromobacterium violaceum; details: for DNA binding of purified CviR loaded with the molecule: vioA promoter probe, CviR 100-500 nM
V. harveyi LuxN = V. harveyi LuxN (Vibrio campbellii, UniProt A7MRY4); assay type: cell-based; details: read-out: IC50, inhibition of bioluminescence
[4] = test system: C. violaceum killing of C. elegans; experiment: C. elegans lifespan assay on C. violaceum lawns; assay type: in vivo, Caenorhabditis elegans
CviR [5] = details: molecule added at 50 μM, E. coli
[6] = V. harveyi BB960 (luxPQ mutant)

T1 sequence (D3W065 1-265): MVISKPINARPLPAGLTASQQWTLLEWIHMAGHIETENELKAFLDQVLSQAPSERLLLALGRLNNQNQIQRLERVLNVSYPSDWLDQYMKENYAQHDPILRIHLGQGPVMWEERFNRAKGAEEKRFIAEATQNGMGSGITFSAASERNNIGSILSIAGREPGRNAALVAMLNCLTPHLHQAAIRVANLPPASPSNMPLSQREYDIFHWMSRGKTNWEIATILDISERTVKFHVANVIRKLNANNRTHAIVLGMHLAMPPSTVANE
V. harveyi LuxN, sequence (A7MRY4 whole entry): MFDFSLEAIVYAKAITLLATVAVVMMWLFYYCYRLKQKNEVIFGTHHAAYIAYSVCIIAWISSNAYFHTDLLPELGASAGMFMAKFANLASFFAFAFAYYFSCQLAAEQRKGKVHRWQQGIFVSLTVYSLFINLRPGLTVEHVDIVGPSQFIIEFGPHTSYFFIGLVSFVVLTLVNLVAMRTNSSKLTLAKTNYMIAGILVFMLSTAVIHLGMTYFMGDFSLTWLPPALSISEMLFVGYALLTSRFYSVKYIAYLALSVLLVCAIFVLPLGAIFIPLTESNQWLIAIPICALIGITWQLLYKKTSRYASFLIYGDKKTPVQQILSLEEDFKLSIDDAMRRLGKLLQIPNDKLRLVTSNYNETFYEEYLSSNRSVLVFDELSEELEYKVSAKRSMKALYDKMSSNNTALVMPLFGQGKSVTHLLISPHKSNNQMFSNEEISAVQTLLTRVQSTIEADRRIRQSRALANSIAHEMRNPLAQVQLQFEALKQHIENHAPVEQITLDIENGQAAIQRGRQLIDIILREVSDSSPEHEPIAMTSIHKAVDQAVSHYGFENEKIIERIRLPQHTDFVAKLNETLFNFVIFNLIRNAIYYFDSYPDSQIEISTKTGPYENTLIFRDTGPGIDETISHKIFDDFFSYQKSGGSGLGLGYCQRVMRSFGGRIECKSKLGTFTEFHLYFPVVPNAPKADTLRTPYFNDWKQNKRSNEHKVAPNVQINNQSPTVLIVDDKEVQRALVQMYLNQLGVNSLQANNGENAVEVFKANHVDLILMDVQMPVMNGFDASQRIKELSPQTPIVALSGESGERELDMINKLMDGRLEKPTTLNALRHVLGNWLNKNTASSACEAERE

`CCCC(=O)N[C@H]1CCOC1=O` [C4-HSL] was tested, and the “maximal gfp expression level compared with C6-HSL” value (CviR [1]) was “can induce maximal gfp expression” and the EC50 (CviR [1]) was 12000 nM.

In the case of Chlorolactone [CL], the IC50 (CviR [2]) is reported as 377 nM, the “DNA binding of C6-HSL loaded CviR on addition of antagonist” value ([3]; 500 nM CviR, antagonist 0-10 μM) is reported as “DNA binding decreased in a dose dependent manner” and the “DNA binding of purified CviR loaded with the molecule” value (shortened to “DNA binding of purified CviR loaded”) [3] is reported as “no ability to bind DNA”. For the same compound, the IC50 (V. harveyi LuxN; [6]) was 14000 nM, the IC50 (V. harveyi LuxN; V. harveyi JMH624 + 20 nM AHL) was 873 nM and the IC50 (V. harveyi LuxN; wild type V. harveyi BB120) was 40000 nM. The “C. elegans median lifespan” value ([4]; wild type C. violaceum, CL 20 μM, two days without antagonist) was “seven” and the “CviR folding and solubility when expressed in presence of molecule” value (CviR [5]) was “promoted CviR folding and solubility”.

In the case of Chloro-thiolactone [CTL], the IC50 (CviR [2]) is reported as 1100 nM, the “DNA binding of purified CviR loaded” value [3] is reported as “no ability to bind DNA” and the IC50 (V. harveyi LuxN; [6]) is reported as 28000 nM. The IC50 (V. harveyi LuxN; wild type V. harveyi BB120) was 150000 nM and the “CviR folding and solubility when expressed in presence of molecule” value (CviR [5]) was “promoted CviR folding and solubility”.

For `CCCCCCCC(=O)N[C@H]1CCOC1=O` [C8-HSL], the “DNA binding of purified CviR loaded” value [3] was “bound DNA with similar affinity to CviR loaded with C6-HSL”, the “maximal gfp expression level compared with C6-HSL” value (CviR [1]) was “only half of the maximal gfp expression” and the EC50 (CviR [1]) was 30 nM.

In the case of `CCCCCC(=O)N[C@H]1CCOC1=O` [C6-HSL], the “DNA probe shift of CL loaded CviR on addition of C6-HSL” value ([3]; 500 nM CviR, 1 μM C6-HSL) is reported as “modest shift of the DNA probe”, the “DNA binding of purified CviR loaded” value [3] is reported as “binds DNA with high affinity” and the “C. elegans median lifespan” value ([4]; C. violaceum cviI mutant, C6-HSL 2 μM) is reported as 4 days. For the same compound, the EC50 (CviR [1]) was 75 nM.

For `CCCCCCCCCC(=O)N[C@H]1CCOC1=O` [C10-HSL], the IC50 (CviR [2]) was 208 nM, the “DNA binding of purified CviR loaded” value [3] was “does not abolish DNA binding” and the “induction of gfp expression through CviR” value (CviR [1]) was “do not induce gfp expression”.

With `CCCCCCCCCCCC(=O)N[C@H]1CCOC1=O` [C12-HSL] the IC50 (CviR [2]) was 494 nM, the “DNA binding of purified CviR loaded” value [3] was “no ability to bind DNA” and the “induction of gfp expression through CviR” value (CviR [1]) was “do not induce gfp expression”.

For `CCCCCCCCCCCCCC(=O)N[C@H]1CCOC1=O` [C14-HSL], the IC50 (CviR [2]) was 268 nM, the “DNA binding of purified CviR loaded” value [3] was “no ability to bind DNA” and the “induction of gfp expression through CviR” value (CviR [1]) was “do not induce gfp expression”.
